Tested on: SBC3 xenograft
Experiment: SBC3 mouse xenograft, Carbo/Leflu study
Assay type: in vivo
Experimental: Athymic nude nu/nu mice were obtained from Charles River, Wilmington, MA, and were acclimated for a week before beginning the experiment. All animal experiments were carried out in accordance with a protocol approved by the Institutional Animal Care and Use Committee COH (IACUC #16004). For treatments, mice were divided into 4 groups with five mice per group and subcutaneously injected into one flank with 2×10^6 SBC3 or SBC5 cells suspensions in 100 μl of PBS. Treatment started on the 14th day when tumors became palpable. Two in vivo studies were done in this project. SBC3 and SBC 5 xenograft with i) vehicle control, ii) […] 50 mg/kg, iii) Leflu 7.5 mg/kg, and iv) […]/Leflu. SBC3 with i) vehicle control, ii) Lur 0.5 mg/kg, iii) Leflu 3.8 mg/kg, and iv) Lur/Leflu. Treatments were given to mice via i.p. twice a week for 6 weeks. Animals were examined daily for signs of tumor growth. Tumors were measured in two dimensions using calipers and body weights were recorded. Animals were photographed on days 1, 5, 10, 15, 20, 25, 30, 35, and 40 after treatment. Tumors were removed on day 40 and photographed. At the end of the study, the mice were euthanized by CO2 asphyxiation followed by cervical dislocation. The tumor weights were compared between groups using an unpaired Student's t-test. A portion of the tumor was fixed in 10% buffered formaldehyde solution and paraffin-embedded for immuno-staining. FFPE tumor sections were stained with pDRP Ser^616 antibody. Tumor sections were deparaffinized and rehydrated, followed by heat-mediated antigen retrieval (pH 6, Dako). After permeabilization and blocking, tumor sections were stained with pDRP1 Ser^616 antibody overnight, washed and incubated with Alexa 488 secondary antibody for one hour, mounted and observed on an LSM 880 with a 10×/0.45 NA objective (Carl Zeiss). Immunofluorescent confocal images were acquired for each treatment (magnification:100×). Mean immunofluorescence intensities were calculated with ZEN 2.3 Lite software.

Cc1oncc1C(=O)Nc1ccc(C(F)(F)F)cc1 [Leflunomide, leflunomide]
pDRP1 Ser616 immunofluorescence in tumor sections (SBC3 xenograft FFPE tumors): significant decrease | reduction in tumor size/weight (SBC3 xenograft, day 40, vs control): ~36% | average final tumor weight at end of study (day 40) (SBC3 xenograft, Carbo 50 mg/kg, Leflu 7.5 mg/kg, i.p. twice a week): 1.01 ± 0.14 g

Reference: patent US20250041313A1, “COMBINATION THERAPY FOR TREATMENT OF CANCER” (CITY OF HOPE, priority 2023, published 2025)
